From patent US10669242B2 (priority 2016, dated 2020)

Target: T1, recombinant glucosyltransferase domain of C. difficile Toxin B/TcdB (Clostridioides difficile, UniProt P18177)
T1 construct: 6-His (C); purchased R&D Systems 6246-GT
Assay: biochemical

T1 sequence (P18177 1-543): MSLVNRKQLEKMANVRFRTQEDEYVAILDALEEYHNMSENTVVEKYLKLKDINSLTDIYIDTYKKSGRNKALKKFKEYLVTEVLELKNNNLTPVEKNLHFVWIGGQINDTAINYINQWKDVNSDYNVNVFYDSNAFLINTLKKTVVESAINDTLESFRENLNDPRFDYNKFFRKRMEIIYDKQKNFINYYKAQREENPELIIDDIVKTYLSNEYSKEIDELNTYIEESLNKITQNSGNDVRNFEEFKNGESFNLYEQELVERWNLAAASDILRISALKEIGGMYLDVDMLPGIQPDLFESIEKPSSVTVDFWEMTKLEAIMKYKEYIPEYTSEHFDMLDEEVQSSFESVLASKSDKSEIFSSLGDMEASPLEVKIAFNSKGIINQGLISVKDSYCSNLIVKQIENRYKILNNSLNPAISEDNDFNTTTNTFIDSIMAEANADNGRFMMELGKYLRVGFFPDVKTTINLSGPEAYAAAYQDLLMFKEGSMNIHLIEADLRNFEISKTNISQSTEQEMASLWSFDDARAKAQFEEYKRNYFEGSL

SMILES | IC50 [µM]
O=C1Nc2cc(Cl)ccc2C(=O)N(Cc2ccc(C(=O)n3ccc4cccnc43)c(Cl)c2)[C@@H]1Cc1ccccn1 [Example 4ab, (R)-8-chloro-4-(3-chloro-4-(1H-pyrrolo[2,3-b]pyridine-1-carbonyl)benzyl)-3-(pyridin-2-ylmethyl)-3,4-dihydro-1H-benzo[e][1,4]diazepine-2,5-dione] | < 0.1
O=C(O)c1ccc(CN2C(=O)c3ccc(Cl)cc3NC(=O)[C@H]2Cc2cccc(Cl)c2)cc1 [Example 3f] | 1 to 10
COc1cc(CN2C(=O)c3ccc(Cl)cc3NC(=O)[C@H]2Cc2ccccn2)ccc1C(=O)O [Example 7d, (R)-4-((8-chloro-2,5-dioxo-3-(pyridin-2-ylmethyl)-2,3-dihydro-1H-benzo[e][1,4]diazepin-4(5H)-yl)methyl)-2-methoxybenzoic acid] | 0.1 to 0.999
O=C(O)c1ccc(CN2C(=O)c3ccc(Cl)cc3NC(=O)[C@H]2Cc2ccc(Cl)c(Cl)c2)cc1 [Example 1d] | 1 to 10
O=C(Nc1ccc(CN2C(=O)c3ccc(Cl)cc3NC(=O)[C@H]2Cc2cccnc2)cc1)c1ccccn1 [Example 26a, (R)—N-(4-((8-Chloro-2,5-dioxo-3-(pyridin-3-ylmethyl)-2,3-dihydro-1H-benzo[e][1,4]diazepin-4(5H)-yl)methyl)phenyl)picolinamide] | 0.1 to 0.999
Cc1ccc(NC(=O)c2ccc(CN3C(=O)c4ccc(Cl)cc4NC(=O)[C@H]3CCN3CCN(C)CC3)cc2)nc1 [Example 10d, (R)-4-((8-chloro-3-(2-(4-methylpiperazin-1-yl)ethyl)-2,5-dioxo-2,3-dihydro-1H-benzo[e][1,4]diazepin-4(5H)-yl)methyl)-N-(5-methylpyridin-2-yl)benzamide] | 1 to 10
O=C1CN(Cc2ccc(C(=O)O)cc2)C(=O)c2ccc(Cl)cc2N1 [Example 3o] | 10 to 35
O=C(Nc1ncccc1Cl)c1ccc(CN2C(=O)c3ccc(Cl)cc3NC(=O)[C@H]2Cc2cccnc2)cc1 [Example 5e, (R)-4-((8-chloro-2,5-dioxo-3-(pyridin-3-ylmethyl)-2,3-dihydro-1H-benzo[e][1,4]diazepin-4(5H)-yl)methyl)-N-(3-chloropyridin-2-yl)benzamide] | 0.1 to 0.999
Cc1ccc(NC(=O)c2ccc(CN3C(=O)c4ccc(NS(C)(=O)=O)cc4NC(=O)[C@H]3C)cc2)nc1 [Example 39a, (R)-4-((3-Methyl-8-(methylsulfonamido)-2,5-dioxo-2,3-dihydro-1H-benzo[e][1,4]diazepin-4(5H)-yl)methyl)-N-(5-methylpyridin-2-yl)benzamide] | 10 to 35
O=C(O)c1c(Cl)cc(CN2C(=O)c3ccc(Cl)cc3NC(=O)[C@H]2Cc2ccccn2)cc1Cl [Example 7c, (R)-2,6-dichloro-4-((8-chloro-2,5-dioxo-3-(pyridin-2-ylmethyl)-2,3-dihydro-1H-benzo[e][1,4]diazepin-4(5H)-yl)methyl)benzoic acid] | 1 to 10
COc1cc(NC(=O)c2ccc(CN3C(=O)c4ccc(Cl)cc4NC(=O)[C@H]3Cc3cccnc3)cc2)ncn1 [Example 5j] | < 0.1
O=C1Nc2cc(Cl)ccc2C(=O)N(Cc2ccc3c(c2)CCN(c2ccccn2)C3=O)[C@@H]1Cc1ccccn1 [Example 37a, (R)-8-Chloro-4-((1-oxo-2-(pyridin-2-yl)-1,2,3,4-tetrahydroisoquinolin-6-yl)methyl)-3-(pyridin-2-ylmethyl)-3,4-dihydro-1H-benzo[e][1,4]diazepine-2,5-dione] | 1 to 10
C[C@@H]1C(=O)Nc2cc(Cl)ccc2C(=O)N1Cc1ccc(C(=O)Nc2nc3ccccc3[nH]2)cc1 [Example 5p, (R)-N-(1H-benzo[d]imidazol-2-yl)-4-((8-chloro-3-methyl-2,5-dioxo-2,3-dihydro-1H-benzo[e][1,4]diazepin-4(5H)-yl)methyl)benzamide] | 1 to 10
O=C(O)c1ccc(CN2C(=O)c3ccc(Cl)cc3NC(=O)C2Cc2cnccn2)cc1 (centres unmarked) [Example 1l] | 1 to 10
Cc1nnc(NC(=O)c2ccc(CN3C(=O)c4ccc(Cl)cc4NC(=O)[C@H]3Cc3ccccn3)cc2)o1 [Example 4bo, (R)-4-((8-chloro-2,5-dioxo-3-(pyridin-2-ylmethyl)-2,3-dihydro-1H-benzo[e][1,4]diazepin-4(5H)-yl)methyl)-N-(5-methyl-1,3,4-oxadiazol-2-yl)benzamide] | < 0.1
CN1CCN(CC(=O)Nc2cc(CN3C(=O)c4ccc(Cl)cc4NC(=O)[C@H]3Cc3ccccn3)ccc2C(=O)O)CC1 [Example 22j] | 1 to 10
O=C(Nc1cc(CN2C(=O)c3ccc(Cl)cc3NC(=O)[C@H]2Cc2ccccn2)ccc1C(=O)O)c1cccnc1 [Example 22g] | 1 to 10
O=C1Nc2cc(Cl)ccc2C(=O)N(Cc2ccc(C(=NO)c3ccccn3)cc2)[C@@H]1Cc1ccccn1 (mixture of isomers) [Example 52a, (R)-8-Chloro-4-(4-((hydroxyimino)(pyridin-2-yl)methyl)benzyl)-3-(pyridin-2-ylmethyl)-3,4-dihydro-1H-benzo[e][1,4]diazepine-2,5-dione] | 0.1 to 0.999
CC(C)[C@@H]1C(=O)Nc2cc(Cl)ccc2C(=O)N1Cc1ccc(C(=O)O)cc1 [Example 3k] | 0.1 to 0.999

SMILES | IC50 [µM]
CC(C)C[C@@H]1C(=O)Nc2cc(Cl)ccc2C(=O)N1Cc1ccc(C(=O)Nc2ccccn2)cc1 [Example 35k] | 10 to 35
COc1ccc(-c2cc(CN3C(=O)c4ccc(Cl)cc4NC(=O)[C@H]3Cc3ccccn3)ccc2C(=O)O)cc1 [Example 8f, (R)-5-((8-chloro-2,5-dioxo-3-(pyridin-2-ylmethyl)-2,3-dihydro-1H-benzo[e][1,4]diazepin-4(5H)-yl)methyl)-4′-methoxy-[1,1′-biphenyl]-2-carboxylic acid] | 0.1 to 0.999
O=C(O)c1ccc(CN2C(=O)c3ccc(Cl)cc3NC(=O)[C@H]2Cc2ccc(F)cc2)cc1 [Example 3d] | 1 to 10
Cc1cc(C(=O)c2ccc(CN3C(=O)c4ccc(Cl)cc4NC(=O)[C@H]3Cc3ccccn3)cc2)c2nccn2c1 [Example 31e] | 1 to 10
O=C(c1ccccn1)c1ccc(CN2C(=O)c3ccc(Cl)cc3NC(=O)[C@H]2Cc2ccccn2)cc1F [Example 11f, (R)-8-chloro-4-(3-fluoro-4-picolinoylbenzyl)-3-(pyridin-2-ylmethyl)-3,4-dihydro-1H-benzo[e][1,4]diazepine-2,5-dione] | < 0.1
Cc1ccc(NC(=O)c2ccc(CN3C(=O)c4ccc(Cl)cc4NC(=O)C3Cc3cnccn3)cc2)nc1 (centres unmarked) [Example 5x, 4-((8-chloro-2,5-dioxo-3-(pyrazin-2-ylmethyl)-2,3-dihydro-1H-benzo[e][1,4]diazepin-4(5H)-yl)methyl)-N-(5-methylpyridin-2-yl)benzamide] | < 0.1
COCC(=O)Nc1ccc(CN2C(=O)c3ccc(Cl)cc3NC(=O)[C@H]2Cc2ccccn2)cc1 [Example 30b] | 10 to 35
COc1cnc(NC(=O)[C@H]2CC[C@H](CN3C(=O)c4ccc(Cl)cc4NC(=O)[C@H]3Cc3ccccn3)CC2)nc1 [Example 5ax, (1R,4r)-4-(((R)-8-chloro-2,5-dioxo-3-(pyridin-2-ylmethyl)-2,3-dihydro-1H-benzo[e][1,4]diazepin-4(5H)-yl)methyl)-N-(5-methoxypyrimidin-2-yl)cyclohexanecarboxamide] | < 0.1
O=C(Nc1cnccn1)c1ccc(CN2C(=O)c3ccc(Cl)cc3NC(=O)[C@H]2Cc2ccccn2)cc1 [Example 5u, (R)-4-((8-chloro-2,5-dioxo-3-(pyridin-2-ylmethyl)-2,3-dihydro-1H-benzo[e][1,4]diazepin-4(5H)-yl)methyl)-N-(pyrazin-2-yl)benzamide] | < 0.1
Cn1ccnc1C(=O)Nc1ccc(CN2C(=O)c3ccc(Cl)cc3NC(=O)[C@H]2Cc2ccccn2)cc1 [Example 27i] | 0.1 to 0.999
Cc1ccc(C(=O)Nc2c(C)cc(CN3C(=O)c4ccc(Cl)cc4NC(=O)[C@H]3Cc3ccccn3)cc2C)nc1 [Example 26l] | 0.1 to 0.999
Cc1ccc(S(=O)(=O)NC(=O)c2ccc(CN3C(=O)c4ccc(Cl)cc4NC(=O)[C@H]3Cc3cccnc3)cc2)cc1 [Example 15e, (R)-4-((8-chloro-2,5-dioxo-3-(pyridin-3-ylmethyl)-2,3-dihydro-1H-benzo[e][1,4]diazepin-4(5H)-yl)methyl)-N-tosylbenzamide] | 1 to 10
CNC(=O)c1cccc(-c2cc(CN3C(=O)c4ccc(Cl)cc4NC(=O)[C@H]3Cc3ccccn3)ccc2C(=O)O)c1 [Example 8p, (R)-5-((8-chloro-2,5-dioxo-3-(pyridin-2-ylmethyl)-2,3-dihydro-1H-benzo[e][1,4]diazepin-4(5H)-yl)methyl)-3′-(methylcarbamoyl)-[1,1′-biphenyl]-2-carboxylic acid] | 0.1 to 0.999
COc1cnc(NC(=O)[C@H]2CC[C@H](CN3C(=O)c4ccc(Cl)cc4NC(=O)[C@H]3Cc3ccccn3)CC2)cn1 [Example 4ce, (1R,4r)-4-(((R)-8-chloro-2,5-dioxo-3-(pyridin-2-ylmethyl)-2,3-dihydro-1H-benzo[e][1,4]diazepin-4(5H)-yl)methyl)-N-(5-methoxypyrazin-2-yl)cyclohexanecarboxamide] | 0.1 to 0.999
Cn1cc(-c2cc(CN3C(=O)c4ccc(Cl)cc4NC(=O)[C@H]3Cc3ccccn3)ccc2C(=O)O)cn1 [Example 8u, (R)-4-((8-chloro-2,5-dioxo-3-(pyridin-2-ylmethyl)-2,3-dihydro-1H-benzo[e][1,4]diazepin-4(5H)-yl)methyl)-2-(1-methyl-1H-pyrazol-4-yl)benzoic acid] | 1 to 10
O=C(Nc1ccc(C(F)(F)F)cn1)c1ccc(CN2C(=O)c3ccc(Cl)cc3NC(=O)[C@H]2Cc2ccccn2)s1 [Example 4bt, (R)-5-((8-chloro-2,5-dioxo-3-(pyridin-2-ylmethyl)-2,3-dihydro-1H-benzo[e][1,4]diazepin-4(5H)-yl)methyl)-N-(5-(trifluoromethyl)pyridin-2-yl)thiophene-2-carboxamide] | 1 to 10
O=C(N[C@H]1CC[C@H](CN2C(=O)c3ccc(Cl)cc3NC(=O)[C@H]2Cc2ccccn2)CC1)c1ccccn1 [Example 26j] | 0.1 to 0.999
O=C(Nc1ccccn1)c1ccc(S(=O)(=O)N2Cc3ccc(Cl)cc3NC(=O)[C@@H]2Cc2ccccn2)cc1 [Example 19c, (S)-4-((8-chloro-2-oxo-3-(pyridin-2-ylmethyl)-2,3-dihydro-1H-benzo[e][1,4]diazepin-4(5H)-yl)sulfonyl)-N-(pyridin-2-yl)benzamide] | 0.1 to 0.999
O=C(CO)Nc1ccc(CN2C(=O)c3ccc(Cl)cc3NC(=O)[C@H]2Cc2ccccn2)cc1 [Example 27b] | 0.1 to 0.999
